Laboratory results reported in patent US20040097534A1, “Composition for the protection and regeneration of nerve cells containing berberine derivatives” (EUGENBIO INC., priority 2001, published 2004).
Where “and” joins values, the source holds several entries; their conditions need not be identical. Equal values may be shown once. Entries after “also recorded” stand apart in the source; their conditions may differ.

Assays:
[1] = system: nerve cells in CA1, dentate gyrus and entorhinal cortex; test: Animal model for dementia (ibotenic acid into entorhinal cortex), calbindin-positive neuron count; type: in vivo, rat
Procedure: After white rat brain was fixed with a stereotaxic frame, 1.5 μl (1 mg/ml) of ibotenic acid and PBS, or 1.5 μl (1 mg/ml) of berberine was injected into the entorhinal cortex region using a microinjector to prepare a model for dementia. […]
Brain was fixed with 4% paraformaldehyde and cryosected to a thickness of 40 μm, and then the cryosected brain was permeablized with 0.5% Triton X-100 for 20 minutes and blocked using 15% blocking serum for 2 hours. After reacting with anti-calbindin antibody at a temperature 4° C. for 16 hours and then further reacting with FITC-labeled secondary antibody or rhodamin (TRITC)-labeled secondary antibody for 1 hour, the cells were fixed on a slide before examining under a confocal microscope.
As an animal model for dementia, ibotenic acid was microinjected into the entorhinal cortex of adult rat brain using a stereotaxic frame.
First, an adult rat was anesthetized, and its head was fixed with a stereotaxic frame. Subsequently, 1.5 μl (1 mg/ml) of ibotenic acid was injected into the entorhinal cortex region to prepare a model for dementia, and then berberine was injected into the same site. 2 weeks after operation, brain tissue sections were counter-stained with hematocylin to examine apoptosis and protective effect. After fluorescence-staining the cells, regions used for cell count were represented as squares (FIG. 14). In addition, the cells were fluorescence-stained with calbindin antibody, a nerve-specific marker, to examine nerve cell survival (see, Tables 8 to 10, FIGS. 11 and 12).

SH-SY5Y cells [2] = test: MTT assay, SH-SY5Y survival under serum deprivation-induced stress; type: cell-based, human; conditions: N2 + retinoic acid 5 μM
Procedure: (§1) Cell injuries under condition of serum deprivation-induced stress and oxidative stress were measured by MTT assay. For MTT assay, Cells were seeded into N2 medium in an amount of 7.5×10^3 cells, and then a neurotoxin or a nerve growth factor was added thereto to differentiate the cells and then 0.1 volume of 4 mg/ml MTT was further added. The mixture was stored at 37° C. for 3-4 hours. After 100 μl of solubilization buffer was added to the mixture and then stored for 24 hours, O.D. values were measured by ELISA assay.
In order to prepare a stroke-like cell model using SH-SY5Y, the cells were cultured under serum deprivation. […] Retinoic acid, which induces the differentiation of SH-SY5Y as a cell differentiation factor, was used as a positive control. 3 hours before depriving serum, the cells were treated with berberine (0.25˜3 μg). The cells were cultured in chemically defined media (N2) for 2 days to induce nerve regeneration (see, Table 2 and FIG. 4a).

SH-SY5Y cells [3] = test: MTT assay, SH-SY5Y survival under oxidative stress (H2O2); type: cell-based, human
Procedure: SH-SY5Y cells were treated with H2O2 for 30 minutes to induce cell injuries. 3 hours before the cells were treated with H2O2, berberine (0.25˜3.5 μg) was added to cell culture to examine its cell protection effect (see, Table 4 and FIG. 4b).

SH-SY5Y cells [4] = test: Neurite regeneration in SH-SY5Y cells; type: cell-based, human; conditions: retinoic acid
Procedure: (§2) Thereafter, the culture was treated with berberine and further cultured for 2 days. The cultured cells were immunostained with nerve cell-specific labeled molecule, and then the number of cells having neurites longer than cell bodies was counted under a confocal microscope. A positive control was treated with bFGF under the same condition as described above to induce the differentiation into nerve cells. In addition, the neuroregenerative effect was examined after berberine together with bFGF was treated. The differentiation degree was measured by double-staining neurites with nerve cell-specific labeled molecule (anti-neurofilament antibody) and FITC-labeled secondary antibody (green), followed by staining cell nuclei with propidium iodide (red). In order to examine the effect of berberine on neurite regeneration, SH-SY5Y cells were used as differentiated nerve cell lines. Retinoic acid inducing neurite growth was used as a positive control.

HiB5 cells [5] = system: HiB5 cells
Procedure: Since HiB5 cells derived from white rat embryonic hippocampus were prepared by retroviral infection of temperature sensitive SV40 large T antigen, they divided at […], but the cell division stopped at 39° C. (body temperature of rat). […] Cell culture medium was prepared by adding a mixture of 10% FBS (fetal bovine serum), penicillin/streptomycin, glutamine and sodium pyruvate (0.11 g/L) to DMEM. On differentiating at 39° C., another cell culture medium was prepared by adding pyruvate to a serum-free medium (N2, containing DMEM/F12, insulin, transferrin, Putreseine and BSA; Botten Stein & Sato., 1979). PC12 cells and SH-SY5Y cells were cultured in DMEM supplemented with 10% FBS. In order to differentiate the cells, NGF or retinoic acid was added to a serum-free medium.
as §1
HiB5 cell line used in this experiment was prepared by infecting primary cultured cells of temperature sensitive SV40 large T antigen in rat embryonic hippocampus (embryonic day 16) using retroviral vectors. The HiB5 cell line was divided at the permissive temperature (32° C.), but the cell division stopped at the non-permissive temperature (body temperature of rat: 39° C.). A small number of GABAegic neurons differentiated in the rat embryonic hippocampus (embryonic day 16), and glutamatergic pyramidal cell precursors still divided, some of which penetrated into dentate gyrus regions through dentate migration pathways in embryonic day 18 to differentiate into glutamatergic granule cells (Altman J., Bayer. S. A. (1990a) Prolonged sojourn of developing pyramidal cells in the intermediate zone of the hippocampus and their settling in the stratum pyramidale. J Comp Neurol. 301, 343-64.; Altman J., Das G. D. (1965) Post-natal origin of microneurones in the rat brain, Nature. 28, 953-956.). When cells stop their cell-division and start to differentiate in vivo, apoptosis occurs.
In order to evaluate the protective effect of berberine against apoptosis and the effect of increasing cell survival, HiB5 cells were cultured under conditions for initiation of differentiation. At this time, the culture was treated with berberine at various concentrations (50 ng/ml˜6 μg/ml). The protective effect of berberine against apoptosis was measured by MTT assay. A positive control group was treated with bFGF to block apoptosis, increase cell survival and induce the differentiation into nerve cells.
Since HiB5 neuronal stem cells undergo cell death during the differentiation, the cells were considered as a negative control group. The percentage of O.D. values is determined for the groups treated with bFGF and berberine, respectively.

HiB5 cells [6] = test: Induction of differentiation of HiB5 cells into nerve cells (neurite count, confocal); type: cell-based, white rat; conditions: HiB5, bFGF positive control
Procedure: as §2, with “(red).” for “(red). In order to examine the effect of berberine on neurite regeneration, SH-SY5Y cells were used as differentiated nerve cell lines. Retinoic acid inducing neurite growth was used as a positive control.”

[7] = system: nerve cells highly sensitive to NMDA receptors; conditions: MK-801 to young rat (7-8-days old); cited from earlier work
PC12 cells [8] = test: MTT assay, PC12 survival under serum deprivation-induced stress; type: cell-based, rat; conditions: RPMI + NGF 100 ng/ml
Procedure: as §1
NGF, increasing cell survival and inducing cell differentiation, was used as a positive control. After the cells were treated with berberine (0.25˜3 μg/ml), the cells were cultured for 2 days to induce nerve regeneration (see, Table 3 and FIG. 5a).

PC12 cells [9] = test: MTT assay, PC12 survival under dexamethasone (glucocorticoid) stress; type: cell-based, rat
Procedure: as §1
Glucocorticoids are hormones secreted from the adrenal glands, and involve in a variety of metabolic processes including glycometabolism. In particular, stress causes release of glucocorticoids to reduce cell divisions of neuronal stem cells in the brain and induce apoptosis of nerve cells. Therefore, PC12 cells were treated with dexamethasone, a glucocorticoid derivative, to examine the effect of berberine against apoptosis of nerve cells. 3 hours after treatment with berberine, dexamethasone (1) was added to a culture solution and incubated for 2 days to induce neuroregeneration (see, Table 5 and FIG. 5b).

[10] = Ibotenic Acid alone (reference)
[11] = N2 + dexamethasone + NGF 100 ng/ml

In the case of `N[C@H](C(=O)O)c1cc(=O)[nH]o1` [Ibotenic Acid, ibotenic acid, reference compound], the “cell number relative to Ibotenic Acid average = 100, CA (individual animals #1-#3)” value ([1]; Ibotenic Acid alone) is reported as 116 and 112 and 73, the “cell number relative to Ibotenic Acid average = 100, DG (individual animals #1-#3)” value ([1]; Ibotenic Acid alone) is reported as 123 and 105 and 72 and the “cell number relative to Ibotenic Acid average = 100, ENT (individual animals #1-#3)” value ([1]; Ibotenic Acid alone) is reported as 100 and 105 and 94. The “cell number, CA (individual animals #1-#3)” value ([1]; Ibotenic Acid alone) was 57 and 55 and 36, the “cell number, CA, AVR” value ([1]; Ibotenic Acid alone) was 49.3 and the “cell number, DG (individual animals #1-#3)” value ([1]; Ibotenic Acid alone) was 227 and 193 and 133. The “cell number, DG, AVR” value ([1]; Ibotenic Acid alone) was 184.3, the “cell number, ENT (individual animals #1-#3)” value ([1]; Ibotenic Acid alone) was 73 and 77 and 68 and the “cell number, ENT, AVR” value ([1]; Ibotenic Acid alone) was 72.7. For the same compound, the “cell number (%) relative to Ibotenic Acid, CA, average” value [1, 10] was 100%, the “cell number (%) relative to Ibotenic Acid, DG, average” value [1, 10] was 100% and the “cell number (%) relative to Ibotenic Acid, ENT, average” value [1, 10] was 100%. The “reduction of calbindin-positive neurons in the hippocampus and entorhinal cortex” value ([1]; ibotenic acid alone, 2 weeks after microinjection) was 30˜40% and the “calbindin-positive neurons, recovery” value ([1]; ibotenic acid alone, 4 weeks after microinjection) was “recovered somewhat; also recorded: some of them were recovered”.

For `CC1=C(/C=C/C(C)=C/C=C/C(C)=C/C(=O)O)C(C)(C)CCC1` [Retinoic acid, reference compound], the O.D. (SH-SY5Y cells [2]; 2 days) was 0.871, the “Average (O.D. relative to N2)” value (SH-SY5Y cells [2]; N2 = 100%) was 130% and the “Average (O.D. relative to H2O2 alone)” value (SH-SY5Y cells [3]; N2, H2O2 + retinoic acid 5 μM) was 321%. The O.D. (SH-SY5Y cells [3]; N2, H2O2 + retinoic acid 5 μM) was 0.179, the “Number of differentiated cells” value (SH-SY5Y cells [4]; N2 = 22.30) was 18.91 and the “total average cell numbers” value (SH-SY5Y cells [4]; N2 = 42.33) was 24.75. For the same compound, the “Average (%) of differentiated cells” value (SH-SY5Y cells [4]; N2 = 44.47) was 81.59%.

In the case of “bFGF: basic fibroblast growth factor, positive control increasing HiB5 survival and differentiation”, the “cell survival rate / protective effect against apoptosis, increase over control” value (HiB5 cells [5]; HiB5 under differentiation conditions, MTT) is reported as 1.5 times and 1.6 times, the O.D. % (HiB5 cells [5]; bFGF 20 ng, control = 100) is reported as 150% and the “differentiation into nerve cells (morphology)” value (HiB5 cells [6]) is reported as “induced the differentiation into nerve cells; also recorded: cell bodies got smaller and neurites got longer”.

In the case of MK-801, the “number of dead nerve cells, of total nerve cells” value [7] is listed as 12-26%.

With `OO` [H2O2, reference compound] the O.D. (SH-SY5Y cells [3]; N2, H2O2 150 μM alone) was 0.056 and the “Average (O.D. relative to H2O2 alone)” value (SH-SY5Y cells [3]; N2, H2O2 150 μM alone (reference = 100%; N2 without H2O2 = 429%)) was 100%.

For “NGF: nerve growth factor, positive control in PC12 cells”, the O.D. (PC12 cells [8]; 2 days) was 0.349, the “Average (O.D. relative to RPMI)” value (PC12 cells [8]; RPMI = 100%) was 208% and the “Average (O.D. relative to dexamethasone alone)” value (PC12 cells [9]; [11]) was 147%. The O.D. (PC12 cells [9]; [11]) was 0.283 and the “cell survival rate increase” value (PC12 cells [9]; dexamethasone stress, 2 days) was “about 1.5 times”.

In the case of `C[C@@H]1C[C@H]2[C@@H]3CCC4=CC(=O)C=C[C@]4(C)[C@@]3(F)[C@@H](O)C[C@]2(C)[C@@]1(O)C(=O)CO` [Dexamethasone, dexamethasone, reference compound], the O.D. (PC12 cells [9]; N2 + dexamethasone 1 μM alone) is reported as 0.193 and the “Average (O.D. relative to dexamethasone alone)” value (PC12 cells [9]; N2 + dexamethasone 1 μM alone (reference = 100%; N2 = 118%)) is reported as 100%.
